Consider 33 molecules from ChEMBL document CHEMBL4834435, “Discovery of Potent Coumarin-Based Kinetic Stabilizers of Amyloidogenic Immunoglobulin Light Chains Using Structure-Based Design” (J Med Chem, 2021).

Data set [1] deals with Immunoglobulin lambda variable 6-57 (Homo sapiens, UniProt P01721, F49Y/T46L). The data set is described as follows: Stabilization of AL patient derived fluorescein-labeled IGLV6-57 T46L/F49Y mutant measured after 24 hrs by proteolysis coupled-fluorescence polarization assay. On the technique in general: Polarisation of emitted light reports the rotation of a fluorescent probe.

Data set [2] has as its target Immunoglobulin lambda variable 6-57 (Homo sapiens, UniProt P01721). The data set is described as follows: Stabilization of AL patient derived full length fluorescein-labeled IGLV6-57 expressed in Escherichia coli BL21 (DE3) measured after 24 hrs by proteolysis coupled-fluorescence polarization assay.
The nature of data set [3]: Protein binding in human plasma at 2 uM after 4 hrs by UPLC-MS/MS analysis. The format is ADME, cell-free.
Data set [4] is described as follows: Solubility of the compound. The format is physicochemical.

Chain of Immunoglobulin lambda variable 6-57 (Homo sapiens, UniProt P01721, F49Y/T46L) (P01721 whole entry, looked up, stated change not applied): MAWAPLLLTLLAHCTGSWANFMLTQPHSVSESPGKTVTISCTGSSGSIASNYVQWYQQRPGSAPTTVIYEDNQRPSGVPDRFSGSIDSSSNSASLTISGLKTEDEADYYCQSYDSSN
Chain of Immunoglobulin lambda variable 6-57 (Homo sapiens, UniProt P01721) (P01721 whole entry): as the sequence (P01721 whole entry, looked up, stated change not applied) above

With `CCN(CC)c1ccc2c(C)c(CCN3C(=O)NC4(CCN(S(=O)(=O)c5ccccc5)C4)C3=O)c(=O)oc2c1` (stereo not given), the EC50 in data set [1] was found to be 648 nM; in data set [2], 207 nM.

For the molecule `Cc1cc(=O)oc2cc(OC(C)Cc3ccccc3)ccc12` (stereo not given), the EC50 in data set [1] was 1380 nM; in data set [2] it was 2970 nM.

The molecule `CCN(CC)c1ccc2c(C)c(CCN3C(=O)NC4(CCN(C(=O)c5ccc[nH]c5=O)C4)C3=O)c(=O)oc2c1` (stereo not given) came in with an EC50 in data set [1] of 3960 nM.

Regarding `CCN(CC)c1ccc2c(C)c(CCN3CC4(CCN(c5nccn6ccnc56)CC4)NC3=O)c(=O)oc2c1`, the EC50 in data set [1] worked out at 4.9 nM; in data set [2], 35.6 nM. The same molecule returned a PPB in data set [3] greater than 99.5%.

For the molecule `CCN(CC)c1ccc2c(C)c(CCOC(=O)NCc3cccc(-c4ccc[nH]c4=O)c3)c(=O)oc2c1`, the EC50 in data set [1] turned out to be 26.2 nM; in data set [2], 151 nM.

Consider `CCN(CC)c1ccc2c(C)c(CCN3C(=O)NC4(CCN(c5ncccn5)CC4)C3=O)c(=O)oc2c1`, for which the figures for the EC50 in data set [1] and in data set [2] were 165 nM and 292 nM, respectively.

In data set [2], `CCCN(CC)c1ccc2c(C)cc(=O)oc2c1` registered an EC50 of 7890 nM.

In the case of `CCN(CC)c1ccc2c(C)c(CCN3C(=O)NC4(CCN(c5nccn6ncnc56)CC4)C3=O)c(=O)oc2c1`, the EC50 was found to be 55.2 nM in data set [1] and 71.1 nM in data set [2].

Turning to `CCN(CC)c1ccc2c(C)c(CCOC(=O)NCCc3cccnc3)c(=O)oc2c1`, the EC50 worked out at 3680 nM in data set [1] and 1110 nM in data set [2].

`CCN(C)c1ccc2c(C)cc(=O)oc2c1` registered an EC50 in data set [2] of 18000 nM.

As for `CCN(CC)c1ccc2c(C)c(CCOC(=O)NCc3ccccc3)c(=O)oc2c1`, the figures for the EC50 in data set [1] and in data set [2] were 317 nM and 302 nM, respectively.

As for `CCN(CC)c1ccc2c(C)c(CCN3C(=O)NC4(CCN(c5ncnc6[nH]cnc56)CC4)C3=O)c(=O)oc2c1`, the EC50 in data set [1] is 46 nM; in data set [2] it was 110 nM.

For `CCN(CC)c1ccc2c(C)c(CCOC(=O)NCc3cccc(C(N)=O)c3)c(=O)oc2c1`, the EC50 came to 228 nM in data set [1] and 150 nM in data set [2].

Regarding `CCN(CC)c1ccc2c(C)c(CCN3C(=O)NC4(CCN(c5ncnc6[nH]cnc56)C4)C3=O)c(=O)oc2c1` (stereo not given), the EC50 in data set [1] turned out to be 355 nM; in data set [2] it was 551 nM.

Turning to `CCN(CC)c1ccc2c(C)c(CCN3CC4(CCN(c5ncccn5)CC4)NC3=O)c(=O)oc2c1`, the EC50 in data set [1] was 13.5 nM; in data set [2] it was 48.1 nM.

For the molecule `CCN(CC)c1ccc2c(C)c(CCOC(=O)NCC3CCCNC3)c(=O)oc2c1` (stereo not given), the EC50 stood at 8800 nM in data set [1] and 1690 nM in data set [2].

Consider `CCN(CC)c1ccc2c(C)c(CCN3C(=O)NC4(CCN(c5ncccn5)C4)C3=O)c(=O)oc2c1` (stereo not given), for which the EC50 amounted to 688 nM in data set [1] and 1370 nM in data set [2].

In the case of `CCN(CC)c1ccc2c(C)c(CCN3C(=O)NC4(CCN(c5ncnc6[nH]ncc56)CC4)C3=O)c(=O)oc2c1`, the EC50 in data set [1] came out at 124 nM; in data set [2] it was 103 nM.

Turning to `CCN(CC)c1ccc2c(C)c(CCN3C(=O)NC4(CCN(c5nccn6ccnc56)CC4)C3=O)c(=O)oc2c1`, the EC50 in data set [1] turned out to be 29.8 nM; in data set [2] it was 62.4 nM.

`CCN(CC)c1ccc2c(C)c(CCN3CC4(CCN(c5ncnc6[nH]ncc56)CC4)NC3=O)c(=O)oc2c1`: the EC50 in data set [1] is 4.7 nM; in data set [2], 8.8 nM.

For the molecule `CCN(CC)c1ccc2c(C)c(CCN3C(=O)NC4(CCN(S(=O)(=O)c5cccnc5)C4)C3=O)c(=O)oc2c1` (stereo not given), the results for the EC50 in data set [1] and in data set [2] were 4370 nM and 313 nM, respectively.

Regarding `CCN(CC)c1ccc2c(C)c(CCN3C(=O)NC4(CCN(C(=O)c5c[nH]cn5)C4)C3=O)c(=O)oc2c1` (stereo not given), the EC50 amounted to 729 nM in data set [1] and 855 nM in data set [2].

Consider `CCN(CC)c1ccc2c(C)c(CCOC(=O)NCc3cccc(NC(C)=O)c3)c(=O)oc2c1`, for which the EC50 in data set [1] was 194 nM; in data set [2], 289 nM.

With `CCN(CC)c1ccc2c(C)c(CCOC(=O)N(C)CCc3cccnc3)c(=O)oc2c1`, the EC50 in data set [1] is greater than 20000 nM; in data set [2], 5280 nM.

For `Cc1cc(=O)oc2cc(OCC(C)c3ccccc3)ccc12` (stereo not given), the EC50 in data set [1] was 444 nM; in data set [2], 558 nM.

With `CCN(CC)c1ccc2c(C)c(CCOC(=O)NCc3cncc(NC(C)=O)c3)c(=O)oc2c1`, the EC50 in data set [1] is 1170 nM; in data set [2] it was 816 nM.

Turning to `CCN(CC)c1ccc2c(C)c(CCN3C(=O)NC4(CCN(C(=O)c5ccc[nH]c5=O)CC4)C3=O)c(=O)oc2c1`, the EC50 was found to be 2700 nM in data set [1] and 3970 nM in data set [2].

`C#CCN(CC#C)c1ccc2c(C)cc(=O)oc2c1` displayed an EC50 in data set [2] of 2000 nM.

In turn, `C#CCN(CC)c1ccc2c(C)cc(=O)oc2c1` had an EC50 in data set [2] of 2650 nM.

As to `CCN(c1ccc2c(C)cc(=O)oc2c1)C(C)C`, the EC50 in data set [2] came out at 9700 nM.

`Cc1ccccc1C(C)Oc1ccc2c(C)cc(=O)oc2c1` (racemic): in data set [4], the solubility entry is recorded as “Nd(Insoluble)”.

As to `Cc1c(CCN2CC3(CCN(c4nccn5ccnc45)CC3)NC2=O)c(=O)oc2cc(OCC(C)c3ccccc3)ccc12` (stereo in doubt; 84a), the EC50 was determined as 8.3 nM in data set [1] and 8.6 nM in data set [2].

`Cc1c(CCN2CC3(CCN(c4nccn5ccnc45)CC3)NC2=O)c(=O)oc2cc(OCC(C)c3ccccc3)ccc12` (stereo in doubt; 84b): the figures for the EC50 in data set [1] and in data set [2] were 3.9 nM and 11.5 nM, respectively.
